This note sets out measurements from EPA's ToxValDB 9.5 (doi:10.2903/j.efsa.2008.145r).

One series relates to Daphnia magna. To be noted: chronic/long-term; duration: 21 days; reproduction.
The subject of the next series is Bibionidae. To be noted: chronic/long-term; duration: 28 days.
In a further series the test system is Coturnix japonica. The conditions noted are these: acute, oral, mortality.
The subject of another series is Apis mellifera. To be noted: acute; duration: 48 hours; oral; unspecified; mortality.
Another series has as its system Tagia sp. To be noted: acute; duration: 14 days; mortality.

Converted amounts (≈) assume the structure as drawn. Some results are limits rather than exact numbers.

Take `Cc1cccc(C)c1N(Cn1cccn1)C(=O)CCl` [Metazachlor]: the NOEC with Daphnia magna was 0.1 mg/L; in the series with Bibionidae, 7.93 mg/kg; in the series on Oncorhynchus mykiss (chronic/long-term, duration: 28 days, growth), 2.15 mg/L. Also, the LD50 with Colinus virginianus (acute, oral, mortality) is more than 2000 mg/kg; with Rattus norvegicus (acute, mortality), more than 2000 mg/kg; with Coturnix japonica (diet) it was more than 449 mg/kg-day; with Coturnix japonica it was more than 2000 mg/kg; in the series on Apis mellifera it was more than 72.2 µg/piece. Also, in the series with Colinus virginianus (reproduction developmental), the NOEL turned out to be 76.5 mg/kg-day. For the same compound, the no observed adverse effect level (NOAEL) with Rattus norvegicus (chronic) turned out to be 79 mg/kg-day; in the series on Rattus norvegicus (chronic, duration: 2 years, organ weight), 8.5 mg/kg-day; with Rattus norvegicus (developmental, development), 50 mg/kg-day; in the series with Rattus norvegicus (subchronic, duration: 90 days, oral, organ weight), 21 mg/kg-day. In addition, the LC50 in the series with Oncorhynchus mykiss (acute, duration: 96 hours, mortality) is 8.5 µg/mL (≈ 30.6 µM); in the series with Tagia sp., more than 1000 mg/kg.

The term NOAEL denotes the highest dose or exposure tested at which no adverse effect was seen.
